Bounds are passed on as bounds.

Among the data in ChEMBL document CHEMBL1132633, “Secondary structure peptide mimetics: design, synthesis, and evaluation of beta-strand mimetic thrombin inhibitors” (J Med Chem, 1999) are k on, Ki and IC50 values, retold here.

For experiment [1], the target named is T1, Prothrombin (Homo sapiens, UniProt P00734).
Description: Inhibitory constant on rate against thrombin.
The target of experiment [2] is T1, Prothrombin. In words: Inhibitory concentration against thrombin.
Experiment [3] has as its target T2, Tissue-type plasminogen activator (Homo sapiens, UniProt P00750). Description: Inhibitory concentration against Tissue type plasminogen activator.
Experiment [4] addresses T3, Serine protease 1 (Bos taurus, UniProt P00760).
T3 sequence (P00760 whole entry): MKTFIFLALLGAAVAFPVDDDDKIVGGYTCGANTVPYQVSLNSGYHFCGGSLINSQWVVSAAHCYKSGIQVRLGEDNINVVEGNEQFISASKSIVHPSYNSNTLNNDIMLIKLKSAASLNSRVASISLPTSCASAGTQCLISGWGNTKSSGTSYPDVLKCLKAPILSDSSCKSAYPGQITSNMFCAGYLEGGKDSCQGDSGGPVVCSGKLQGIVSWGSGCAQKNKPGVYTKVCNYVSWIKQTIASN
Description: Inhibitory concentration against trypsin.

Experiment [5] concerns the target Urokinase-type plasminogen activator (Homo sapiens, UniProt P00749). In words: Inhibitory concentration against Urokinase-type plasminogen activator.
The target of experiment [6] is T4, Plasminogen (Rattus norvegicus, UniProt Q01177). In words: Inhibition constant against plasmin.
T4 sequence (Q01177 97-581 limits assumed): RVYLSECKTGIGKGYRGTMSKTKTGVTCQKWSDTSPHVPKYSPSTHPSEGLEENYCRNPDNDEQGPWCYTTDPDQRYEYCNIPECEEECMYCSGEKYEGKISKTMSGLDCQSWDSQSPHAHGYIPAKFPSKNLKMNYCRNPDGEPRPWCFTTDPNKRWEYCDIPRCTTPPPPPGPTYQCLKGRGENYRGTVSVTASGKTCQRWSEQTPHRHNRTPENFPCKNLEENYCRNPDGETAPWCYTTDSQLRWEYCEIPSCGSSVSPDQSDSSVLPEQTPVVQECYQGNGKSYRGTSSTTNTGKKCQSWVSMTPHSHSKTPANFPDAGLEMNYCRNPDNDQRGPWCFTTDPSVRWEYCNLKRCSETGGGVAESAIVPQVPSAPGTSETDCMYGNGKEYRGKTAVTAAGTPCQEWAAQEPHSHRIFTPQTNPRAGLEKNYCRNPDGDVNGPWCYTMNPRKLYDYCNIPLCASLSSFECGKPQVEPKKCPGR
T4 sequence (Q01177 582-812 limits assumed): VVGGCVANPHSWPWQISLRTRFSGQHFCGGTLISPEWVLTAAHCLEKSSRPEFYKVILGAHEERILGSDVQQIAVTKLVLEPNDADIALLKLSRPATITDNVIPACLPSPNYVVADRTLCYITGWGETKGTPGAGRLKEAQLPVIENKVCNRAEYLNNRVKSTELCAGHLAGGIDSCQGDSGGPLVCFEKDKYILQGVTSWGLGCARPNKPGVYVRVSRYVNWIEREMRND
For experiment [7], the target named is T5, Coagulation factor X (Homo sapiens, UniProt P00742). Description: Inhibition constant against Coagulation factor Xa.
T5 sequence (P00742 41-179 limits assumed): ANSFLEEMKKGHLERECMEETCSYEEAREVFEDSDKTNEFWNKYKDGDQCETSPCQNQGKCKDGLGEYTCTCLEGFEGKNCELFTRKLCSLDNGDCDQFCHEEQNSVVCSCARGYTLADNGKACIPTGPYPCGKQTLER
T5 sequence (P00742 235-488 limits assumed): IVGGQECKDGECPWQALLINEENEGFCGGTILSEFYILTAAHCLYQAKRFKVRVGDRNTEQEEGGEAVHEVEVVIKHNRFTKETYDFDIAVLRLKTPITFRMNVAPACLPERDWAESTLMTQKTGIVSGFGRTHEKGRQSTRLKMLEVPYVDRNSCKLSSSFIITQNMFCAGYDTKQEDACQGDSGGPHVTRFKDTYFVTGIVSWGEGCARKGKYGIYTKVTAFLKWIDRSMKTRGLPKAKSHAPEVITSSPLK
Experiment [8] has as its target T6, Coagulation factor VII (Homo sapiens, UniProt P08709).
T6 sequence (P08709 whole entry): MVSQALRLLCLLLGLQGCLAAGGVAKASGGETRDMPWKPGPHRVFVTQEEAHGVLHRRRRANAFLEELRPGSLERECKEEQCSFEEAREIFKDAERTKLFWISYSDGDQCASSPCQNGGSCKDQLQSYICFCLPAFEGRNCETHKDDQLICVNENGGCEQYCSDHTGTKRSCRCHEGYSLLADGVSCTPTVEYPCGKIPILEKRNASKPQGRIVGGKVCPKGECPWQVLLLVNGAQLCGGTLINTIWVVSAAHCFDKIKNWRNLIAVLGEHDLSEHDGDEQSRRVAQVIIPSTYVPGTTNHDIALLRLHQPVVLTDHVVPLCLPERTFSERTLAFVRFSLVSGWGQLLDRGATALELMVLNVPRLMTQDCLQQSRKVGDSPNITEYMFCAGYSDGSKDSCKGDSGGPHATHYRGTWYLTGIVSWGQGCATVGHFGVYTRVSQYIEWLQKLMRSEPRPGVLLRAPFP
Description: Inhibition constant against coagulation factor VIIa.

For experiment [9], the target named is T5, Coagulation factor X. Description: Inhibitory concentration against Coagulation factor Xa.
The target of experiment [10] is T6, Coagulation factor VII. In words: Inhibitory concentration against coagulation factor VIIa.
Experiment [11] deals with T4, Plasminogen. Description: Inhibitory concentration against plasmin.
Experiment [12] concerns the target T2, Tissue-type plasminogen activator. In words: Compound was evaluated for the inhibition of Tissue type plasminogen activator (tissue plasminogen activator).

T2 sequence (P00750 whole entry): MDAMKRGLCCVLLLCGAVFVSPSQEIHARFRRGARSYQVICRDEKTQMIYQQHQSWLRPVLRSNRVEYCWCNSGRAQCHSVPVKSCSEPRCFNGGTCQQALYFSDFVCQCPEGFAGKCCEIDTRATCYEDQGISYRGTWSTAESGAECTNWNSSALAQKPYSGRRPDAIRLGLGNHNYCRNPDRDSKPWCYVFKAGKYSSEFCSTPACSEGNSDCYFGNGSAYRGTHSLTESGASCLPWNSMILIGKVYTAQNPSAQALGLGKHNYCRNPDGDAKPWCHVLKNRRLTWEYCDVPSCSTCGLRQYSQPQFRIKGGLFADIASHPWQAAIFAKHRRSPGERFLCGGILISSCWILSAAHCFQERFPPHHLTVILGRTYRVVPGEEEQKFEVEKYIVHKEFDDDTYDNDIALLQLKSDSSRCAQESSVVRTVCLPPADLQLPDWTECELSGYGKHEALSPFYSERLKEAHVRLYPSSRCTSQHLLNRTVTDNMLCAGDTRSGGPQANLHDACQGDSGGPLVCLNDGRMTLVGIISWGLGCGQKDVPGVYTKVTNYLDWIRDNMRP

For the compound `COc1ccc(CCNC(=O)C(=O)[C@H](CCCN=C(N)N)NC(=O)[C@@H]2CCN3CC[C@@](N)(Cc4ccccc4)CN23)cc1`, the k on in experiment [1] came to 250000 M⁻¹ s⁻¹.
Usually Ki stands for the equilibrium dissociation constant of an inhibitor or competing ligand from its target. Read a high Ki as weaker binding. In the case of `COc1ccc(CCNC(=O)C(=O)[C@H](CCCNC(=N)N)NC(=O)[C@@H]2CCN3CC[C@@](N)(Cc4ccccc4)CN23)cc1`, affinity in experiment [2] was put at a Ki of 0.45 nM.
The same measure, in the same setting: the same measure for `NCCCC[C@H](NC(=O)[C@@H]1CCN2CC[C@@](N)(Cc3ccccc3)CN12)C(=O)C(=O)NCc1ccccc1`: 2000 nM.
`N=C(N)NCCC[C@H](NC(=O)[C@@H]1CCC2CC[C@@](N)(Cc3ccccc3)CN21)C(=O)c1nc2ccccc2s1` (stereo in doubt; form 2) [listing 1 of 2 here]: the inhibition constant Ki came to 0.85 nM in experiment [2]; 93 nM in [3]; 0.23 nM in [4]; 335 nM in experiment [5]; 251 nM in experiment [6]; 19.3 nM in experiment [7]. The compound further came in with a Ki in [8] of 200 nM.
For `N=C(N)NCCC[C@H](NC(=O)[C@@H]1CCN2CC[C@@](N)(Cc3ccccc3)CN12)C(=O)C(=O)NCCc1ccccc1`, the inhibition constant (Ki) amounted to 0.071 nM in experiment [2] and 0.027 nM in experiment [4]. In addition, the k on in [1] worked out at 640000 M⁻¹ s⁻¹.
As for `N=C(N)NCCC[C@H](NC(=O)[C@@H]1CCC2CC[C@@](N)(Cc3ccccc3)CN21)C(=O)c1nc2ccccc2s1` (stereo in doubt; form 1) [listing 1 of 2 here], the k on in experiment [1] is more than 1e+07 M⁻¹ s⁻¹.
Turning to `N=C(N)NCCC[C@H](NC(=O)[C@@H]1CCN2CC[C@@](N)(Cc3ccccc3)CN12)C(=O)c1nc2ccccc2s1`, the inhibition constant (Ki) came to 495 nM in experiment [3]; 0.64 nM in experiment [4]; 600 nM in [5]; 415 nM in experiment [6]; 270 nM in experiment [7]; 270 nM in experiment [8]. This compound gave a k on in experiment [1] of more than 1e+07 M⁻¹ s⁻¹.
`N=C(N)NCCC[C@H](NC(=O)[C@@H]1CCN2CC[C@@](N)(Cc3ccccc3)CN12)C(=O)C(=O)NCCc1ccc(Cl)cc1` gave an inhibition constant (Ki) in [2] of 0.31 nM. In addition, the k on in experiment [1] amounted to 380000 M⁻¹ s⁻¹.
In turn, `N=C(N)NCCC[C@H](NC(=O)[C@@H]1CCC2CC[C@@](N)(Cc3ccccc3)CN21)C(=O)c1nc2ccccc2s1` (stereo in doubt; form 2) [listing 2 of 2 here] came in with a k on in experiment [1] of more than 1e+07 M⁻¹ s⁻¹.
As to `N=C(N)NCCC[C@H](NC(=O)[C@@H]1CCC2CC[C@@](N)(Cc3ccccc3)CN21)C(=O)c1nc2ccccc2s1` (stereo in doubt; form 1) [listing 2 of 2 here], in experiment [2], the Ki is 10 nM.
In experiment [1], `N=C(N)NCCC[C@H](NC(=O)[C@@H]1CCN2CC[C@@](N)(Cc3ccccc3)CN12)C(=O)C(=O)NCc1ccccc1` yielded a k on of 880000 M⁻¹ s⁻¹.
Take `N=C(N)NCCC[C@H](NC(=O)[C@@H]1CCN2CC[C@@](N)(Cc3ccccc3)CN12)C(=O)c1nccs1`: the inhibition constant (Ki) in [2] is 2.4 nM. Also, the k on in experiment [1] was more than 1e+07 M⁻¹ s⁻¹.
As usually defined, the IC50 is the concentration needed to halve the response being measured. A high value points to lower potency. For the compound `NC(N)=NCCC[C@@H](CCl)NC(=O)[C@@H]1CCCN1C(=O)[C@H](N)Cc1ccccc1`, the 50% inhibitory concentration (IC50) in experiment [9] was determined as 165 nM; in [10], 200 nM; in experiment [11], 699 nM; in [2], 1.5 nM; in experiment [12] it was 106 nM; in experiment [5], 508 nM.
Consider `N=C(N)NCCC[C@@H](CCl)NC(=O)[C@@H]1CCN2CC[C@@](N)(Cc3ccccc3)CN12`, for which the half-maximal inhibitory concentration (IC50) came out at 385 nM in experiment [9]; 140 nM in [10]; 978 nM in experiment [11]; 1.2 nM in experiment [2]; 632 nM in experiment [3]; 927 nM in experiment [5]. This compound also had a k on in experiment [1] of 2.4e+06 M⁻¹ s⁻¹.
